Results published in patent publication EP0535626A1, “Use of 4-amino-1-(2-pyridyl)piperidines as anti-convulsivant and anti-epileptic agents” (SANOFI, priority 1991, dated 1993).

What was measured:
[1] = test system: convulsions provoquées par le pentylénététrazole; test: Pentylenetetrazole-induced convulsions test in mice; assay type: in vivo, souris; settings: Mus musculus, ip, 0.5 h; Swiss female mice, intraperitoneal 30 minutes before 130 mg/kg pentylénététrazole intraperitoneal; read-out: DE₅₀ (doses protégeant 50% des animaux)
Excerpt: (§1) La nouvelle activité anticonvulsivante des composés de formule (I), a été mise en évidence en évaluant les effets des composés (I) dans le test des convulsions provoquées par électrochoc chez la souris et dans le test des convulsions provoquées par le pentylénététrazole chez la souris selon la méthode décrite par C.S. Goodman, M. Singh Grewal, W.C. Brown et E.A. Swinyard dans J. Pharmacol. Exp. Ther. 108, 168-176, (1953).
(§2) Pour ces tests on a utilisé des souris Swiss femelles d'un poids corporel de 22 à 26 g, réparties en lot de 10 animaux chacun. Une semaine avant l'expérimentation, chaque lot de 10 a été mis en cage, gardé dans une pièce à température constante (21°C ± 1°C), en cycle jour/nuit, avec nourriture et boisson à volonté. Les produits de formule (I) à tester ainsi que le pentylénététrazole ont été mis en solution dans de l'eau distillée. Le volume d'injection des produits utilisés a été de 0,4 ml pour 20 g de poids corporel. • · Convulsions provoquées par le pentylénététrazole. Les composés de formule (I) ont été administrés par voie intrapéritonéale 30 minutes avant l'administration par voie intrapéritonéale de 130 mg/kg de pentylénététrazole (dose nécessaire pour que 80% des souris contrôlées présentent une crise convulsive). […]

[2] = test system: convulsions provoquées par électrochoc; test: Electroshock-induced convulsions test in mice; assay type: in vivo, souris; settings: Mus musculus, ip, 0.5 h; Swiss female mice, intraperitoneal 30 minutes before the shock (12 volts, 0,4 secondes, corneal electrodes); read-out: DE₅₀ (doses protégeant 50% des animaux)
Excerpt: as §1, §2

SMILES: NC1CCN(c2cccc(Cl)n2)CC1 [4-amino-1-(6-chloro-2-pyridyl)pipéridine]
- ED50 [1]: < 10 mg/kg
- ED50 [2]: < 3 mg/kg
